The data set has as its system rodent lifetime carcinogenesis bioassay, tumor incidence TD50. The data set can be described thus: carcinogenic potency in animals, long-term in vivo studies, CPDB compilation (AID 1745844).
Where [1] appears, read: mouse, strain B6C3F1, females, by gavage, site: liver, lesion: hepatocellular adenoma + hepatocellular carcinoma + neoplastic nodule, dosed 103 weeks, study length 105 weeks.
Where [2] appears, read: mouse, strain B6C3F1, females, by gavage, site: lung, lesion: alveolar/bronchiolar adenoma + alveolar/bronchiolar carcinoma, dosed 103 weeks, study length 105 weeks.
The mark [3] stands for this setting: mouse, strain B6C3F1, males, by gavage, site: any site (literature study), lesion: several types, types named in the paper, dosed 103 weeks, study length 104 weeks.
[4] abbreviates: mouse, strain B6C3F1, males, by gavage, site: liver, lesion: hepatocellular adenoma + hepatocellular carcinoma + neoplastic nodule, dosed 103 weeks, study length 104 weeks.
The mark [5] stands for this setting: mouse, strain B6C3F1, males, by gavage, site: lung, lesion: alveolar/bronchiolar adenoma + alveolar/bronchiolar carcinoma, dosed 103 weeks, study length 104 weeks.
Setting [6] is: rat, strain Fischer 344, males, by gavage, site: any site (literature study), lesion: several types, types named in the paper, dosed 103 weeks, study length 104 weeks.
The mark [7] stands for this setting: rat, strain Fischer 344, males, by gavage, site: testis, lesion: interstitial-cell tumor, dosed 103 weeks, study length 104 weeks.

Several values for one entry are separate records, joined by “and”; a condition that tells them apart may be missing. Equal entries are not always repeated. Activity calls are given as the source filed them. How the calls were made is not given here.

Our source for the TD50 and carcinogen call values is PubChem BioAssay AID1745844 (Carcinogenic Potency Database (CPDB), 2022).

Turning to `Nc1c(F)c(N)c(F)c(F)c1F`, the TD50 runs as follows: (mouse, strain CD-1 HaM/ICR, females, in feed, site: liver, lesion: several types, types named in the paper, dosed 77 weeks, study length 94 weeks) 6500 mg/kg/day (inactive); (mouse, strain CD-1 HaM/ICR, males, in feed, site: any site (literature study), lesion: several types, types named in the paper, dosed 77 weeks, study length 94 weeks) 331 mg/kg/day; (mouse, strain CD-1 HaM/ICR, males, in feed, site: liver, lesion: hepatoma, dosed 77 weeks, study length 94 weeks) 86.3 mg/kg/day and 109 mg/kg/day; (mouse, strain CD-1 HaM/ICR, males, in feed, site: liver, lesion: several types, types named in the paper, dosed 77 weeks, study length 94 weeks) 78.3 mg/kg/day; (mouse, strain CD-1 HaM/ICR, males, in feed, site: lung, lesion: several types, types named in the paper, dosed 77 weeks, study length 94 weeks) 1130 mg/kg/day (inactive); (rat, strain Charles River CD (Sprague-Dawley), males, in feed, site: any site (literature study), lesion: several types, types named in the paper, dosed 77 weeks, study length 98 weeks) 14.6 mg/kg/day (inactive). In addition, the carcinogen call runs as follows: (mouse, strain CD-1 HaM/ICR, females, in feed, site: lung, lesion: several types, types named in the paper, dosed 77 weeks, study length 94 weeks) “negative (inactive)”; (rat, strain Charles River CD (Sprague-Dawley), males, in feed, site: liver, lesion: several types, types named in the paper, dosed 77 weeks, study length 98 weeks) “negative (inactive)”.

As for `c1ccc2sc(SNC3CCCCC3)nc2c1`, the carcinogen call by setting is: (mouse, strain B6AKF1, females, oral dosing, site: any site (literature study), lesion: several types, types named in the paper, dosed 76 weeks, study length 76 weeks) “negative (inactive)”; (mouse, strain B6AKF1, females, oral dosing, site: liver, lesion: hepatoma, dosed 76 weeks, study length 76 weeks) “negative (inactive)”; (mouse, strain B6AKF1, females, oral dosing, site: lung, lesion: adenoma, dosed 76 weeks, study length 76 weeks) “negative (inactive)”; (mouse, strain B6AKF1, males, oral dosing, site: any site (literature study), lesion: several types, types named in the paper, dosed 76 weeks, study length 76 weeks) “negative (inactive)”; (mouse, strain B6AKF1, males, oral dosing, site: liver, lesion: hepatoma, dosed 76 weeks, study length 76 weeks) “negative (inactive)”; (mouse, strain B6AKF1, males, oral dosing, site: lung, lesion: adenoma, dosed 76 weeks, study length 76 weeks) “negative (inactive)”. For the same molecule, the carcinogen call by setting is: (mouse, strain B6C3F1, females, oral dosing, site: liver, lesion: hepatoma, dosed 76 weeks, study length 76 weeks) “negative (inactive)”; (mouse, strain B6C3F1, females, oral dosing, site: lung, lesion: several types, types named in the paper, dosed 76 weeks, study length 76 weeks) “negative (inactive)”. Moreover, the TD50 reads like this: (mouse, strain B6C3F1, females, oral dosing, site: any site (literature study), lesion: several types, types named in the paper, dosed 76 weeks, study length 76 weeks) 243 mg/kg/day (inactive); (mouse, strain B6C3F1, males, oral dosing, site: any site (literature study), lesion: several types, types named in the paper, dosed 76 weeks, study length 76 weeks) 50.8 mg/kg/day (inactive); (mouse, strain B6C3F1, males, oral dosing, site: liver, lesion: hepatoma, dosed 76 weeks, study length 76 weeks) 92.7 mg/kg/day (inactive); (mouse, strain B6C3F1, males, oral dosing, site: lung, lesion: adenoma, dosed 76 weeks, study length 76 weeks) 532 mg/kg/day (inactive).

With `CC(I)C1OCC(CO)O1` (stereo not given), the TD50 by setting is: (mouse, strain B6C3F1, females, by gavage, site: Harderian gland + pituitary gland, anterior, lesion: adenoma, NOS + carcinoma, NOS, dosed 103 weeks, study length 105 weeks) 92.4 mg/kg/day; (mouse, strain B6C3F1, females, by gavage, site: Harderian gland, lesion: adenoma, NOS + carcinoma, NOS, dosed 103 weeks, study length 105 weeks) 263 mg/kg/day; (mouse, strain B6C3F1, females, by gavage, site: any site (literature study), lesion: several types, types named in the paper, dosed 103 weeks, study length 105 weeks) 172 mg/kg/day; (mouse, strain B6C3F1, females, by gavage, site: forestomach, lesion: squamous-cell papilloma, dosed 103 weeks, study length 105 weeks) 608 mg/kg/day; under setting [1], 373 mg/kg/day; (mouse, strain B6C3F1, females, by gavage, site: liver, lesion: hepatocellular adenoma + hepatocellular carcinoma, dosed 103 weeks, study length 105 weeks) 373 mg/kg/day. In addition, the TD50 was 471 mg/kg/day (mouse, strain B6C3F1, females, by gavage, site: liver, lesion: hepatocellular adenoma, dosed 103 weeks, study length 105 weeks); 2740 mg/kg/day under setting [2]; 138 mg/kg/day (mouse, strain B6C3F1, females, by gavage, site: pituitary gland, anterior, lesion: adenoma, NOS, dosed 103 weeks, study length 105 weeks); 1100 mg/kg/day under setting [4]; 2410 mg/kg/day under setting [5]; 214 mg/kg/day (inactive) (rat, strain Fischer 344, females, by gavage, site: any site (literature study), lesion: several types, types named in the paper, dosed 103 weeks, study length 104 weeks). For the same molecule, the TD50 runs as follows: (rat, strain Fischer 344, females, by gavage, site: liver, lesion: hepatocellular adenoma + hepatocellular carcinoma + neoplastic nodule, dosed 103 weeks, study length 104 weeks) 2490 mg/kg/day; under setting [6], 52.1 mg/kg/day; (rat, strain Fischer 344, males, by gavage, site: liver, lesion: hepatocellular adenoma + hepatocellular carcinoma + neoplastic nodule, dosed 103 weeks, study length 104 weeks) 571 mg/kg/day; (rat, strain Fischer 344, males, by gavage, site: multiple organs + thyroid gland, lesion: mononuclear-cell leukemia + follicular-cell carcinoma, dosed 103 weeks, study length 104 weeks) 84.1 mg/kg/day; (rat, strain Fischer 344, males, by gavage, site: multiple organs, lesion: mononuclear-cell leukemia, dosed 103 weeks, study length 104 weeks) 101 mg/kg/day; (rat, strain Fischer 344, males, by gavage, site: nasal cavity, lesion: adenoma, NOS, dosed 103 weeks, study length 104 weeks) 1210 mg/kg/day. The TD50 runs as follows: under setting [7], 40.6 mg/kg/day; (rat, strain Fischer 344, males, by gavage, site: thyroid gland, lesion: follicular-cell carcinoma, dosed 103 weeks, study length 104 weeks) 280 mg/kg/day. The carcinogen call under setting [3] was “negative (inactive)”.

As for `CNCc1ccc(CSCCNC(=NCC(O)c2ccc(O)cc2)NS(C)(=O)=O)o1` (stereo not given), the carcinogen call is “negative (inactive)” (rat, strain Jcl:SD, females, by gavage, site: liver, lesion: one or several types, types not named, dosed 52 weeks, study length 52 weeks); “negative (inactive)” (rat, strain Jcl:SD, females, by gavage, site: liver, lesion: one or several types, types not named, dosed 52 weeks, study length 56 weeks); “negative (inactive)” (rat, strain Jcl:SD, males, by gavage, site: liver, lesion: one or several types, types not named, dosed 52 weeks, study length 52 weeks); “negative (inactive)” (rat, strain Jcl:SD, males, by gavage, site: liver, lesion: one or several types, types not named, dosed 52 weeks, study length 56 weeks).

For `[Na+]`, the TD50 by setting is: (mouse, strain B6C3F1, females, in drinking water, site: liver, lesion: hyperplastic nodule, dosed 104 weeks, study length 104 weeks) 1.33e+06 mg/kg/day; (mouse, strain B6C3F1, females, in drinking water, site: lung, lesion: papillary tumor, dosed 104 weeks, study length 104 weeks) 4980 mg/kg/day; (mouse, strain B6C3F1, males, in drinking water, site: any site (literature study), lesion: several types, types named in the paper, dosed 104 weeks, study length 104 weeks) 992 mg/kg/day; (mouse, strain B6C3F1, males, in drinking water, site: liver, lesion: hemangioma, dosed 104 weeks, study length 104 weeks) 9550 mg/kg/day; (mouse, strain B6C3F1, males, in drinking water, site: liver, lesion: hyperplastic nodule, dosed 104 weeks, study length 104 weeks) 5970 mg/kg/day; (mouse, strain B6C3F1, males, in drinking water, site: lung, lesion: papillary tumor, dosed 104 weeks, study length 104 weeks) 3740 mg/kg/day. The TD50 was 2660 mg/kg/day (rat, strain ACI, males, in feed, site: forestomach, lesion: papilloma, dosed 52 weeks, study length 52 weeks) and 2980 mg/kg/day (inactive) (rat, strain Fischer 344, males, in feed, site: adrenal medulla, lesion: pheochromocytoma, dosed 104 weeks, study length 104 weeks). In addition, the carcinogen call runs as follows: (rat, strain F344/DuCrj, males, in feed, site: forestomach, lesion: one or several types, types not named, dosed 51 weeks, study length 52 weeks) “negative (inactive)”; (rat, strain F344/DuCrj, males, in feed, site: stomach, glandular, lesion: one or several types, types not named, dosed 51 weeks, study length 52 weeks) “negative (inactive)”; (rat, strain Wistar, males, in feed, site: stomach, glandular, lesion: one or several types, types not named, dosed 82 weeks, study length 82 weeks) “negative (inactive)”.

On to `NC(=S)NNC=O`, for which the TD50 (rat, strain Sprague-Dawley, females, in feed, site: any site (literature study), lesion: several types, types named in the paper, dosed 46 weeks, study length 64 weeks) is 140 mg/kg/day (inactive).

For the molecule `CCCCCl`, the carcinogen call is, setting by setting: (mouse, strain B6C3F1, females, by gavage, site: any site (literature study), lesion: several types, types named in the paper, dosed 103 weeks, study length 104 weeks) “negative (inactive)”; under setting [3], “negative (inactive)”. Further, the TD50 is 1380 mg/kg/day under setting [1]; 13100 mg/kg/day (mouse, strain B6C3F1, females, by gavage, site: lung, lesion: alveolar/bronchiolar adenoma + alveolar/bronchiolar carcinoma, dosed 103 weeks, study length 104 weeks); 1160 mg/kg/day under setting [2]; 1710 mg/kg/day (inactive) (mouse, strain B6C3F1, females, by gavage, site: lung, lesion: alveolar/bronchiolar carcinoma, dosed 103 weeks, study length 105 weeks); 423 mg/kg/day under setting [3]; 2830 mg/kg/day (mouse, strain B6C3F1, males, by gavage, site: bone marrow + kidney/pelvis + liver + multiple organs + omentum + spleen + thorax, lesion: hemangiosarcoma, dosed 103 weeks, study length 104 weeks). Also, the TD50 reads like this: under setting [4], 808 mg/kg/day and 623 mg/kg/day; (mouse, strain B6C3F1, males, by gavage, site: liver, lesion: hepatocellular adenoma + hepatocellular carcinoma, dosed 103 weeks, study length 104 weeks) 808 mg/kg/day (inactive); under setting [5], 3190 mg/kg/day; (rat, strain Fischer 344, females, by gavage, site: any site (literature study), lesion: several types, types named in the paper, dosed 103 weeks, study length 105 weeks) 100 mg/kg/day (inactive); (rat, strain Fischer 344, females, by gavage, site: liver, lesion: hepatocellular adenoma + hepatocellular carcinoma + neoplastic nodule, dosed 103 weeks, study length 105 weeks) 1510 mg/kg/day; under setting [6], 40.5 mg/kg/day. For the same molecule, under setting [7], the TD50 was 45.1 mg/kg/day (inactive).

`O=c1[nH]nc(-c2ccc([N+](=O)[O-])o2)o1`: the TD50 (rat, strain Sprague-Dawley, females, in feed, site: any site (literature study), lesion: several types, types named in the paper, dosed 46 weeks, study length 66 weeks) is 8.61 mg/kg/day; the TD50 (rat, strain Sprague-Dawley, females, in feed, site: mammary gland, lesion: adenocarcinoma, dosed 46 weeks, study length 66 weeks) is 31.2 mg/kg/day; the TD50 (rat, strain Sprague-Dawley, females, in feed, site: mammary gland, lesion: several types, types named in the paper, dosed 46 weeks, study length 66 weeks) is 8.61 mg/kg/day.

For orientation: TD50 means the dose at which the toxic effect under study appears in half of the subjects.
